Target: T1, human RXFP1 (Homo sapiens, UniProt Q9HBX9)
T1 sequence (Q9HBX9 1-757): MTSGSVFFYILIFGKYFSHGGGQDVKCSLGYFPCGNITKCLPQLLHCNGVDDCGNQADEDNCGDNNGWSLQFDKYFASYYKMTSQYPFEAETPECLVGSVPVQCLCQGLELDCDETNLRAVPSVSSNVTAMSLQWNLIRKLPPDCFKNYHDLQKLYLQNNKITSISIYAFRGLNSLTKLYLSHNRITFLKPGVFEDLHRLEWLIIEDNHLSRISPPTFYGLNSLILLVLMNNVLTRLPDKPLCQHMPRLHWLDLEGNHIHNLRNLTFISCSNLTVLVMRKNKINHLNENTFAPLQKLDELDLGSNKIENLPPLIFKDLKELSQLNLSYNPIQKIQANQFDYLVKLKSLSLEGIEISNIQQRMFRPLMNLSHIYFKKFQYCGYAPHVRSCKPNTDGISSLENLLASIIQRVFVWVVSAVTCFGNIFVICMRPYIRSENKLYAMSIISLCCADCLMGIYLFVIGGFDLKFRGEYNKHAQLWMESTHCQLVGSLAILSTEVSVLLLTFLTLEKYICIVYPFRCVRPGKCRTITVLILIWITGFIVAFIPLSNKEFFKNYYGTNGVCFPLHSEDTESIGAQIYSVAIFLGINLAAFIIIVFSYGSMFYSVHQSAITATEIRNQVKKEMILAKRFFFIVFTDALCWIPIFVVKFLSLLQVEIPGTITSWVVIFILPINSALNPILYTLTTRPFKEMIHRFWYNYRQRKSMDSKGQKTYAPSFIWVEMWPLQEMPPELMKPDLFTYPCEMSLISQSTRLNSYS
Assay: RXFP1 Hu cAMP (Test A)
Format: cell-based
Design: expressed in transfected cells; host or cells: Jump-In T-REx CHO-K1 cells (ThermoFisher), induced with 10 ng/ml doxycycline for 24 h
Conditions: RXFP1 Hu cAMP; for EC50: read-out: Test A EC50
Description: To screen for modulators of hRXFP1, an assay identifying compounds that stimulate cAMP production via the Gs-coupled hRXFP1 receptor was used. cAMP HiRange HTRF kit (available from CisBio Bioassays, France; catalogue number 62AM6PEJ) was employed in large according to manufacturer's recommendations for detection of cAMP. The HTRF method is a competitive immunoassay between native cAMP produced by cells and cAMP labeled with the dye d2. The tracer binding is visualized with a cryptate labeled antibody for cAMP and the signal is thus inversely proportional to the amount of produced cAMP.
Cells: Jump-In™ T-REx™ CHO-K1 Cells (ThermoFisher) stably transfected with human RXFP1 was employed. Cells were induced to express human RXFP1 by treatment with 10 ng/ml doxycycline for 24 h. Cells were then cryopreserved for long term storage.
HTRF detection reagents: cAMP-d2 and anti-cAMP cryptate reconstituted according to CisBio instructions were diluted 1:40 in lysis buffer provided with the HTRF-kit.
3. 4 μL assay buffer with 1 mM IBMX (0.5 mM final concentration) to block phosphodiesterases was added with Multidrop Combi (ThermoFisher).
6. 4 μL cAMP-d2 in lysis buffer was added with Multidrop Combi.
7. 4 μL anti-cAMP cryptate in lysis buffer was added with Multidrop Combi
8. 2 h incubation at room temperature
Using a cAMP standard curve, HTRF data was converted to amount cAMP produced in the samples which was subsequentially used for calculation of concentration responses. Concentration response data were fitted with a four parameter logistic fit, the Hill equation. The results from the assay are reported in Table 36 as EC50 (μM) and Sinf (%).
Where the assay was run multiple times for the same compound, the geometric mean is reported.
Sinf is the fitted activity level, efficacy, at infinite concentration of test compound. To facilitate comparison of efficacy data, efficacy was normalized to % effect of the response stimulated by a saturating concentration of relaxin (1 nM). Where the assay was run multiple times for the same compound, the arithmetic mean is reported.

Test A Sinf [%]	EC50 [nM]	Compound
111	1200	COc1cc(F)c(OC[C@H]2CC[C@@H](C(=O)O)CC2)cc1C(=O)N[C@@H]1[C@H]2CC[C@H](C2)[C@@H]1C(=O)Nc1cccc(S(=O)(=O)C(F)(F)F)c1 [Example 440]
108	–	COc1cc(F)c(-c2ccc(C(=O)O)c(F)c2)cc1C(=O)N[C@H]1[C@@H](C(=O)Nc2cccc(S(=O)(=O)C(F)(F)F)c2)[C@@H]2C=C[C@H]1C2 (racemic) [Example 232]
68	–	COc1cc(F)c(-c2ccc(O)c(C(=O)O)c2)cc1C(=O)N[C@H]1[C@@H]2CC[C@@H](C2)[C@H]1C(=O)Nc1cccc(S(=O)(=O)C(F)(F)F)c1 (single isomer, unassigned) [Example 557]
95	–	COc1cc(F)c(-c2ccc(C(=O)O)cc2)cc1C(=O)N[C@@H]1[C@H]2CC[C@H](C2)[C@@H]1C(=O)NCC(C)(C)C [Example 304]
121	> 2200	CCC(CC)NC(=O)c1ccc(C)cc1NC(=O)c1cc(O[C@H]2CC[C@@](C)(C(=O)O)CC2)c(C#N)cc1OC [Example 168]
105	–	COc1cc(F)c(O[C@H]2CC[C@@](C)(C(=O)O)CC2)cc1C(=O)N[C@@H]1[C@H]2CC[C@H](C2)[C@@H]1C(=O)NCCC(F)(F)F [Example 596]
107	800	COc1cc(F)c(-c2nnc(CCC(=O)O)s2)cc1C(=O)N[C@H]1C(C(=O)Nc2cccc(S(=O)(=O)C(F)(F)F)c2)[C@@H]2CC[C@H]1C2 (stereo partly drawn) [Example 322, 3-(5-(2-Fluoro-4-methoxy-5-(((1S,2R,3S,4R)-3-((3-((trifluoromethyl)sulfonyl)phenyl)carbamoyl)bicyclo[2.2.1]heptan-2-yl)carbamoyl)phenyl)-1,3-,4-thiadiazol-2-yl)propanoic acid]
102	29	COc1cc(C#N)c(O[C@H]2CC[C@@](C)(C(=O)O)CC2)cc1C(=O)N[C@@H]1[C@H]2CC[C@H](C2)[C@@H]1C(=O)NCc1cc(C)ccc1C [Example 136]
95	11	COc1cc(F)c(O[C@H]2CC[C@@](C)(C(=O)O)CC2)cc1C(=O)N[C@@H]1CCCCC[C@@H]1C(=O)Nc1cccc(S(=O)(=O)C(F)(F)F)c1 (racemic) [Example 354]
116	1000	COc1ccc(-c2cc(C(=O)N[C@H]3[C@@H](C(=O)Nc4cccc(S(=O)(=O)C(F)(F)F)c4)[C@@H]4C=C[C@H]3C4)c(OC)cc2F)cc1C(=O)O (racemic) [Example 230]
86	200	COc1cc(F)c(O[C@H]2CC[C@@](C)(C(=O)O)CC2)cc1C(=O)N[C@@H]1CCOC[C@@H]1C(=O)Nc1cccc(S(=O)(=O)C(F)(F)F)c1 (racemic) [Example 341]
98	130	COc1cc(C#N)c(O[C@H]2CC[C@@](C)(C(=O)O)CC2)cc1C(=O)N[C@@H]1[C@H]2CC[C@H](C2)[C@@H]1C(=O)NC1CCCCC1 [Example 121]
100	200	COc1cc(F)c(O[C@H]2C[C@@H](CC(=O)O)C2)cc1C(=O)N[C@@H]1[C@@H]2CC[C@@H](C2)[C@@H]1C(=O)Nc1cccc(S(=O)(=O)C(F)(F)F)c1 [Example 475, 2-((1S,3s)-3-(2-Fluoro-4-methoxy-5-(((1R,2R,3S,4S)-3-((3-((trifluoromethyl)sulfonyl)phenyl)carbamoyl)bicyclo[2.2.1]heptan-2-yl)carbamoyl)phenoxy)cyclobutyl)acetic acid]
95	3300	COc1cc(F)c(-c2cnc(C(=O)O)cn2)cc1C(=O)N[C@H]1[C@@H](C(=O)Nc2cccc(S(=O)(=O)C(F)(F)F)c2)[C@@H]2C=C[C@H]1C2 (racemic) [Example 276]
103	580	COc1cc(F)c(O[C@@H]2CC[C@H](C(=O)O)OC2)cc1C(=O)NC1[C@H]2CC[C@H](C2)[C@@H]1C(=O)Nc1cccc(S(=O)(=O)C(F)(F)F)c1 (mixture of isomers) [Example 442]
100	480	Cn1ncc2c(O[C@H]3CC[C@@](C)(C(=O)O)CC3)cc(C(=O)N[C@@H]3[C@H]4CC[C@H](C4)[C@@H]3C(=O)NCC3(C)CCC3)cc21 [Example 379]
85	820	COc1cc(F)c(-c2cc(C(=O)O)cs2)cc1C(=O)N[C@H]1[C@@H](C(=O)Nc2cccc(S(=O)(=O)C(F)(F)F)c2)[C@@H]2C=C[C@H]1C2 (racemic) [Example 284, rac-5-(2-Fluoro-4-methoxy-5-(((1R,2R,3S,4S)-3-((3-((trifluoromethyl)sulfonyl)phenyl)carbamoyl)bicyclo[2.2.1]hept-5-en-2-yl)carbamoyl)phenyl)thiophene-3-carboxylic acid]
99	84	COc1cc(C#N)c(O[C@H]2CC[C@@](C)(C(=O)O)CC2)cc1C(=O)N[C@@H]1[C@H]2CC[C@H](C2)[C@@H]1C(=O)NC[C@@H](F)c1ccccc1 [Example 131]
104	140	COc1cc(F)c(O[C@H]2CC[C@@](C)(C(=O)O)CC2)cc1C(=O)N[C@@H]1[C@H]2CC[C@H](C2)[C@@H]1C(=O)NC12CC(C1)C2 [Example 600]
82	910	COc1cc(F)c(-c2ccc(C(=O)O)cc2)cc1C(=O)N[C@H]1[C@@H](C(=O)Nc2cc(F)cc(S(F)(F)(F)(F)F)c2)[C@@H]2C=C[C@H]1C2 (racemic) [Example 298]
101	190	COc1cc(F)c(-c2cnc(CCC(=O)O)cn2)cc1C(=O)N[C@@H]1[C@@H]2CC[C@@H](C2)[C@@H]1C(=O)Nc1cccc(S(=O)(=O)C(F)(F)F)c1 (racemic) [Example 324, rac-3-(5-(2-Fluoro-4-methoxy-5-(((1R,2R,3S,4S)-3-((3-((trifluoromethyl)sulfonyl)phenyl)carbamoyl)bicyclo[2.2.1]heptan-2-yl)carbamoyl)phenyl)pyrazin-2-yl)propanoic acid]
116	–	COc1cc(F)c(O[C@H]2CC[C@@](C)(C(=O)O)CC2)cc1C(=O)N[C@@H]1[C@H]2CC[C@H](C2)[C@@H]1C(=O)N[C@@H](C)C(F)(F)F [Example 601]
108	1600	COc1cc(F)c(OCc2cccc(C(=O)O)c2)cc1C(=O)N[C@H]1[C@@H](C(=O)Nc2cccc(S(=O)(=O)C(F)(F)F)c2)[C@@H]2C=C[C@H]1C2 (racemic) [Example 449]
92	610	COc1cc(C#N)c(Oc2ccc(C(=O)O)cc2)cc1C(=O)N[C@@H]1[C@H]2CC[C@H](C2)[C@@H]1C(=O)NCC1(C)CCC1 [Example 483]
96	–	COc1cc(F)c(O[C@H]2CC[C@@](C)(C(=O)O)CC2)cc1C(=O)N[C@@H]1CC[C@@H]1C(=O)NCC(C)(C)C (racemic) [Example 346]
119	–	COc1cc(F)c(O[C@H]2CC[C@@](C)(C(=O)O)CC2)cc1C(=O)N[C@@H]1CCO[C@@H]1C(=O)Nc1cccc(S(=O)(=O)C(F)(F)F)c1 [Example 356]

Compound	Test A Sinf [%]	EC50 [nM]
(1R,4s)-4-(2-Fluoro-4-methoxy-5-(((1S*,2R*,4R*)-4-methoxy-2-(neopentylcarbamoyl)cyclopentyl)carbamoyl)phenoxy)-1-methylcyclohexane-1-carboxylic acid [Example 547]	114	–
